We go through three compounds from PMC8044546, “Mycobacterium tuberculosis Thymidylyltransferase RmlA Is Negatively Regulated by Ser/Thr Protein Kinase PknB” (Frontiers in Microbiology, 2021).

In assay [1] the target is RmlA (Mycobacterium tuberculosis, UniProt P9WH13).
Assay [2] deals with PknH (Mycobacterium tuberculosis, UniProt P9WI71).
The target of assay [3] is PknD (Mycobacterium tuberculosis, UniProt P9WI79).
Sequence of PknD (P9WI79 2-664): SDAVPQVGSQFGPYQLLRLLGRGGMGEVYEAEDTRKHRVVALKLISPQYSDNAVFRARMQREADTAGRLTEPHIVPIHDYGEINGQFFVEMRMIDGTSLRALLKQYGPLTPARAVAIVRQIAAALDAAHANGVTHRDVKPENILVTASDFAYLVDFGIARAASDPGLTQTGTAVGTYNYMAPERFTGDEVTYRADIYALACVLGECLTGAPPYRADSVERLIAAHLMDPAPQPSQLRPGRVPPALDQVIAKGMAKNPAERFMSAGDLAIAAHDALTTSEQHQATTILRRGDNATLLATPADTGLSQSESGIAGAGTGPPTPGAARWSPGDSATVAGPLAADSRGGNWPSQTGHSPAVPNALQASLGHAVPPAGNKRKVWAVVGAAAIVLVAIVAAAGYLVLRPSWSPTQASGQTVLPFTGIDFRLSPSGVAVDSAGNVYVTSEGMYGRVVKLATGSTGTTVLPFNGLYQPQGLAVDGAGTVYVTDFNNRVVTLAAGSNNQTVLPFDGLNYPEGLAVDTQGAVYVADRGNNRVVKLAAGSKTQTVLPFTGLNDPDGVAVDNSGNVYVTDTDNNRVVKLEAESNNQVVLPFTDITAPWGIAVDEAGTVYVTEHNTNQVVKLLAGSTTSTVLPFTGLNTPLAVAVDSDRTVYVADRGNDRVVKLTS

Sequence of RmlA (P9WH13 whole entry): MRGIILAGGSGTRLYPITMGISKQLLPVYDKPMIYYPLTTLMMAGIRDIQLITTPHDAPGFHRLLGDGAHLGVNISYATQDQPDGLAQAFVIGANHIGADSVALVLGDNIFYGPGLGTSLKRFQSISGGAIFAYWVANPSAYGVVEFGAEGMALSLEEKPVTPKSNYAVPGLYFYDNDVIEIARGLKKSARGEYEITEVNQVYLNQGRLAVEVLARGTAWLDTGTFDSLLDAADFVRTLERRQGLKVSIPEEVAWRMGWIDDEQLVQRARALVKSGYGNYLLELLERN
Sequence of PknH (P9WI71 whole entry): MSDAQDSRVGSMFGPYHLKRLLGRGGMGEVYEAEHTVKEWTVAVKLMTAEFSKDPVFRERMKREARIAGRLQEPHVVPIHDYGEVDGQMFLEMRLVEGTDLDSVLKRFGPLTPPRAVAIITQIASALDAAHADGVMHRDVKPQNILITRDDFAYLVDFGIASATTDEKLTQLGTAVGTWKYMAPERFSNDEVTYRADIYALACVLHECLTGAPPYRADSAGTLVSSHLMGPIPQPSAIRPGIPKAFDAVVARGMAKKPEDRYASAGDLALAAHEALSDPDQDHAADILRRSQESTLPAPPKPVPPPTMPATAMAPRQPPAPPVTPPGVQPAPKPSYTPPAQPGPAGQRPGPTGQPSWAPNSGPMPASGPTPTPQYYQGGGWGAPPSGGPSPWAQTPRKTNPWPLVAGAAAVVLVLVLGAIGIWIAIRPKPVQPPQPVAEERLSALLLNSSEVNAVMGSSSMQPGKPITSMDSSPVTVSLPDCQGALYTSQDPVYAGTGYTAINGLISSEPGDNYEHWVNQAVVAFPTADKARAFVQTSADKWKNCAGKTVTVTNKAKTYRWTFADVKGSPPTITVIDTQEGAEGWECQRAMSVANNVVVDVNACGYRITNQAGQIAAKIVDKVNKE

On to `O=P(O)(O)O[C@H]1O[C@H](CO)[C@@H](O)[C@H](O)[C@H]1O` [D-Glc-1-P], for which the “malachite green phosphate assay coupled with pyrophosphatase” value in assay [1] is “ability of RmlA to convert D-Glc-1-P and dTTP to D-Glc-dTDP and PPi”.
With `Nc1ncnc2c1ncn2[C@@H]1O[C@H](COP(=O)(O)OP(=O)(O)OP(=O)(O)O)[C@@H](O)[C@H]1O` [[γ-^32P]ATP], the autophosphorylation assay entry in assay [2] was “three kinases, i.e., PknB, PknD, and PknH, demonstrated high kinase activities”; in assay [3] it was “three kinases, i.e., PknB, PknD, and PknH, demonstrated high kinase activities”.
Consider `Cc1cn([C@H]2C[C@H](O)[C@@H](COP(=O)(O)OP(=O)(O)OP(=O)(O)O)O2)c(=O)[nH]c1=O` [dTTP], for which the “malachite green phosphate assay coupled with pyrophosphatase” value in assay [1] is “ability of RmlA to convert D-Glc-1-P and dTTP to D-Glc-dTDP and PPi”.
